Here are results for three compounds from patent US20030143559A1, “Novel estrogen receptor ligand binding domain variants and novel ligands and pharmaceutical compositions” (priority 2001, published 2003).

Data set [1] has as its target T1, ER-LBD 421V/428A (Homo sapiens, UniProt P03372, L428A/M421V).
T1 construct: expressed in transfected cells; host or cells: HeLa
T1 sequence (P03372 311-547 M421V/L428A): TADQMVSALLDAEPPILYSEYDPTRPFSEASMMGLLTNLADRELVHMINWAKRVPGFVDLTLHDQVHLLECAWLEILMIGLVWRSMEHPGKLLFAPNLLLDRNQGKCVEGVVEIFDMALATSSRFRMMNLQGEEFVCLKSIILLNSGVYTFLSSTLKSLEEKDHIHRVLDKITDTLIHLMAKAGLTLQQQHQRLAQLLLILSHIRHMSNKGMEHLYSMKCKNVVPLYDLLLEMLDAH
Kind of data set: ER-LBD 421V/428A transactivation, cotransfection luciferase reporter assay in HeLa cells. It counts as cell-based. Particulars: p6x2C7Luc reporter, 0.003 to 1000 nM, mean of two or more experiments, read-out: EC50 ± STDEV. The method, then:
(§1) In order to evaluate the ability of the fusion proteins C7LBD A, B, and the related LBD mutants to regulate transgene expression, a standard co-transfection reporter assay was performed. A reporter construct, henceforth known as 6×2C7pGL3Luc, containing six copies of a directly repeated C7 binding site (6×2C7) inserted upstream of an SV40 promoter fragment and reporter gene encoding firefly luciferase (pGL3Pro; Promega) was transfected along with the designated fusion protein and assayed as described below. Note the consensus C7 binding site is 5′-GCG TGG GCG-3′.
(§2) Cultured cells (HeLa, Cos, Hep3B or other) were seeded at 5×10^4 cells/well in a 24 well plate prior to the day of transfection in DMEM Phenol-free media, supplemented with L-glutamine and 5% (v/v) charcoal-dextran stripped Fetal Bovine serum (sFBS). Cells were transfected using the Qiagen Superfect Transfection method. For each well 1 μg of total DNA, containing 0.5 μg luciferase reporter plasmid (6×2C7pGL3Luc), 0.1 μg of chimeric activator DNA (e.g., C7LBDA, C7LBDB, or mutants thereof ), and 0.4 μg of an inert carrier plasmid DNA (p3Kpn), was mixed with 60 μL of DMEM phenol-free/serum free media, and 5 μL of Superfect reagent. In general, about 10 ng to about 0.5 μg of chimeric activator DNA was used for each well. […]
A general note: In a reporter assay the amount or activity of a reporter protein is the signal.

In data set [2] the target is T2, wild-type ER (Homo sapiens, UniProt P03372).
T2 construct: expressed in transfected cells; host or cells: COS-7
T2 sequence (P03372 1-595): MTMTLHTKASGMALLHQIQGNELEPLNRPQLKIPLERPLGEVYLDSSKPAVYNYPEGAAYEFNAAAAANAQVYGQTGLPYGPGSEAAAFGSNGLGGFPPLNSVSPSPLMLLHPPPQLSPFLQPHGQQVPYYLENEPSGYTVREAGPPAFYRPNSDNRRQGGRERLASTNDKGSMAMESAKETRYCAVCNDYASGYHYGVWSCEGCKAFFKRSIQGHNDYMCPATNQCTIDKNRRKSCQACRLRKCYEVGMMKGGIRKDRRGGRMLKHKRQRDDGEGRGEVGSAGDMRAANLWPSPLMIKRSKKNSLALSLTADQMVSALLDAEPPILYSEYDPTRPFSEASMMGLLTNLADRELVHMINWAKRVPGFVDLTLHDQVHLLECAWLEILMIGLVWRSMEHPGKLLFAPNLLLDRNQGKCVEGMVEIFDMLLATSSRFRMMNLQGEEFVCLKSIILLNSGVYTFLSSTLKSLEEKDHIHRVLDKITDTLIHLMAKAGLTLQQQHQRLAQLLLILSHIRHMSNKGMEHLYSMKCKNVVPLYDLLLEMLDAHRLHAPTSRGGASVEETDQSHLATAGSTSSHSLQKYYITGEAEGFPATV
Kind of data set: Inhibition of E2 activity on wild-type ER, COS-7 cells with pHEGO and ERE luciferase reporter. Particulars: IC50 ± STDEV, pHEGO and pERETkLuc, E2 (3 nM) + 0.1 to 1000 nM compound. It counts as cell-based. The method, then:
For transfection, 0.5 microgram of pERE2tkluc reporter plasmid, 20 ng of pHEGO, and 0.5 microgram of pCIneo inert carrier DNA were combined with 60 microliter serum-free DMEM and 5 microliter Qiagen Superfect transfection reagent, vortexed for 10s, and set at room temperature for 10 min. Each sample was diluted with 350 microliters of steroid-free media, mixed, and added to each well. Following 2 hr 30 min incubation at 37° C., cells were washed once with Dulbecco's phosphate buffered saline (DPBS), and refed with steroid-free media. […] Approximately 24 hr after treatment, cells were washed once with DPBS, then 200 microliter of reporter lysis buffer was added per well and frozen at −80° C. Cells were thawed at room temperature on an orbital shaker for 1 hr 30 min. A 10 microliter aliquot of lysate was transferred to 96 well opaque plates, and relative luciferase units (RLU) determined on a luminometer using the appropriate firefly luciferase substrate.
Note that the nonspecific activity is a noncompetable element in the assay system.
In order to dissolve them completely, all the solutions were warmed in 55° C. or boiled water bath for 10 to 20 min before use. The DMSO in cell culture medium was maintained to 0.01% for all the drug concentration tested as well as the vehicle control.

Data set [3] deals with T3, ER-LBD 388V/424Y/428A (Homo sapiens, UniProt P03372, I424Y/L428A/M388V).
T3 construct: expressed in transfected cells; host or cells: HeLa
T3 sequence (P03372 311-547 M388V/I424Y/L428A): T1 sequence (P03372 311-547 M421V/L428A) with M78V, V111M, I114Y
Kind of data set: ER-LBD 388V/424Y/428A transactivation, cotransfection luciferase reporter assay in HeLa cells. Type of data set: cell-based. On the procedure:
as §1, §2

Data set [4] deals with T4, Av3-388V/424Y/428A (Homo sapiens, UniProt P03372, I424Y/L428A/M388V).
T4 construct: fragment B=ER amino acids 258-554; expressed in transfected cells; host or cells: HeLa cells transduced with Av3 or gutless adenoviral vector
T4 sequence (P03372 258-554 M388V/I424Y/L428A): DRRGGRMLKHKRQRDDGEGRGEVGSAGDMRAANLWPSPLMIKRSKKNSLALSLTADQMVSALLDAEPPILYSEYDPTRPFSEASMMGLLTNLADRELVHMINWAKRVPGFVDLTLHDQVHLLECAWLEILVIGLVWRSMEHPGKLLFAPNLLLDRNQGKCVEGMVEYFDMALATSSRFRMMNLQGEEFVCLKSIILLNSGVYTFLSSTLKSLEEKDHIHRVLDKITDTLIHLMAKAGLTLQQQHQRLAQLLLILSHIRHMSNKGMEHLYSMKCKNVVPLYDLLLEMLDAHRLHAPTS
Kind of data set: Transactivation on adenoviral (Av3)-delivered ER variant, luciferase in HeLa cells. It counts as cell-based. Particulars: 100 nM test compound, 24 hrs (FIG. 5). The source says:
Xu et al., Molecular Therapy, 3:262-273, 2000.

Data set [5] concerns the target T5, 388V-424Y-428A transcription factor (Homo sapiens, UniProt P03372, I424Y/L428A/M388V).
T5 construct: fragment B=ER amino acids 258-554; expressed in transfected cells; host or cells: HeLa cells transduced with Av3 or gutless adenoviral vector
T5 sequence (P03372 258-554 M388V/I424Y/L428A): T4 sequence (P03372 258-554 M388V/I424Y/L428A)
Kind of data set: In vitro inducible luciferase expression with gutless adenoviral transcription factor vector in Hela cells. Type of data set: cell-based.

Data set [6] has as its target T6, 388V-424Y-428A transcription factor system (Homo sapiens, UniProt P03372, I424Y/L428A/M388V).
T6 construct: fragment B=ER amino acids 258-554; expressed in transfected cells; host or cells: HeLa cells transduced with Av3 or gutless adenoviral vector
T6 sequence (P03372 258-554 M388V/I424Y/L428A): T4 sequence (P03372 258-554 M388V/I424Y/L428A)
Briefly: In vivo regulation of endostatin transgene, gutless vectors, serum endostatin ELISA. On the set-up: species or system C57BL/6 mice. As to conditions: 50 ug/animal IP; for Endostatin Levels: vectors 5×10^10 particles/mouse each, n = 3. The method, then:
To address this issue of sustained induction, a second in vivo study was performed.
A general note: In an ELISA, binding on a coated surface is turned into a signal by an enzyme label.

Data set [7] has as its target T7, Av3-421/428 (Homo sapiens, UniProt P03372, L428A/M421V).
T7 sequence (P03372 258-554 M421V/L428A): T4 sequence (P03372 258-554 M388V/I424Y/L428A) with V131M, M164V, Y167I
Briefly: Transactivation on adenoviral (Av3)-delivered ER variant, luciferase in HeLa cells. The source says: For example, the ER LBD mutants of the present invention were constructed into a replication defective adenoviral vector (Av3) backbone DNA sequence so that this regulatory system could be delivered into cells for clinical application and testing. An Av3 vector containing a series of C7 binding sites linked to an SV40 minimal promoter and luciferase transgene (C7-SV40-luc) was also constructed and delivered simultaneously with each of the Av3 ER LBD mutant vectors. The cells were then exposed to the corresponding ligand to test the capability of the adenoviral-delivered ER mutants to respond to their corresponding ligands and then mediate the transcription of the luciferase transgene in the context of an adenoviral vector. […] Xu et al., Molecular Therapy, 3:262-273, 2000.

By EC50 is commonly meant the concentration needed to bring the measured effect to its halfway point. In general, IC50 refers to the concentration needed to halve the response being measured. The melting point is the temperature of the solid-liquid transition.

Numbering of substitutions follows the chain as printed. Values joined by “and” are separate entries in the source; they are usually repeats but may differ in a detail not shown here. Equal entries are not always repeated.

With `COC(=O)NC/C(=C(/c1ccc(O)cc1)c1ccc(OCCN(C)C)cc1)c1ccccc1` [LBB551, Carbamic acid, [(2Z)-3-[4-[2-(dimethylamino)ethoxy]phenyl]-3-(4-hydroxyphenyl)-2-phenyl-2-propenyl]-, methyl ester], the melting point was 122 to 123 °C. Besides, the EC50 in data set [1] worked out at 0.00489 µM. Further, in data set [2], the IC50 worked out at 0.955 µM.
Take `CN(C)CCOc1ccc(/C(=C(/CC2CC3CCC2C3)c2ccccc2)c2ccc(O)cc2)cc1` (stereo not drawn) [LBB938, 4-((1Z))-3-bicyclo[hept-2-yl-1-{4-[2-(dimethylamino)ethoxy]phenyl}-2-phenylprop-1-enyl)phenol]: in data set [3] (HeLa cells cotransfected with pC7ERLBD 388V/424Y/428A and p6x2C7Luc, 0.1 to 1000 nM, mean of two or more experiments, read-out: EC50 ± STDEV), the EC50 is 0.0284 µM and ~0.028 µM. Moreover, the “sensitivity of mutant ER LBD 388V/424Y/428A to LBB 938 relative to estrogen” value in data set [3] (ratio of EC50 values) is listed as “approximately eight”. For the same compound, in data set [2], the IC50 amounted to 0.388 µM. The “luciferase activity over the basal level” value in data set [4] came out at 19 fold. Further, in data set [5] (100 nM ligand vs without ligand), the “Fold Induction” value came to 90 fold. The “Luciferase Expression Levels (Relative Light Units)” value in data set [5] ((+) induced with 100 nM ligand, mean +/− standard error (n = 4)) was 3284939 +/− 116076 Relative Light Units. Further, the “endostatin expression, result in words” value in data set [6] is “induce endostatin expression”. Moreover, the “Endostatin Levels” value in data set [6] (Day 1) worked out at 6074 ± 3536 ng/mL; in data set [6] (Day 3), 2332 ± 333 ng/mL; in data set [6] (Day 7) it was 600 ± 72 ng/mL.
As for `COC(=O)NC/C(=C(\c1ccc(O)cc1)c1ccc(OCCN(C)C)cc1)c1ccccc1` [LBC081, Carbamic acid, [(2E)-3-[4-[2-(dimethylamino)ethoxy]phenyl]-3-(4-hydroxyphenyl)-2-phenyl-2-propenyl]-, methyl ester], the melting point was in the range of 161 to 162 °C. In addition, the EC50 in data set [1] was determined as 0.0117 µM. Further, the IC50 in data set [2] turned out to be 0.845 µM. In addition, the “response relative to basal activity / fold induction” value in data set [7] (100 nM test compound, 24 hrs (FIG. 5)) is reported as “three”. Further, in data set [7] (read-out: response relative to basal activity / fold induction), the fold induction at 0.1 µM was found to be 3.
